Entries after “also recorded” stand apart in the source; their conditions may differ. One block for each compound: values may come before it.
Tests used:
[1] = test system: Bleomycin-induced lung fibrosis in mice; assay: Bleomycin-induced lung fibrosis in mice; format: in vivo, mouse
[2] = test system: hypoxia-induced PH in mice; assay: Hypoxia-induced PH in mice: BAPN (prevention, rescue) or GW3965 (prevention); format: in vivo, mouse
Source text: Finally, we wanted to determine if ApoE activity and/or LOX-dependent vascular stiffening were essential for ECM stiffening and PH development by miR-130/301. To assess the importance of ApoE activity, we attempted to prevent PH in mice via treatment with daily dietary ingestion of the liver-X nuclear hormone receptor (LXR) agonist GW3965, a known pharmacologic inducer of ApoE (Pencheva et al., 2014), simultaneously with hypoxia (FIGS. 62A-62H and 68A-H). Alternatively, experiments were designed to either prevent or reverse hypoxia-induced PH in mice via serial treatment with a pharmacologic inhibitor of LOX (Levental et al., 2009), β-aminopropionitrile BAPN, administered either simultaneously with hypoxia exposure (“prevention”) or after disease development (“reversal”) (FIGS. 62A-62H and 68A-H). In all cases of GW3965 or BAPN treatment, collagen crosslinking (FIG. 62D, 62H, FIG. 68) was inhibited, leading to decreased indices of PH, as reflected by RVSP (FIG. 62A, 62E), right ventricular remodeling (RV/LV+S ratio; FIG. 62B, 62F) and pulmonary arteriolar muscularization (FIG. 62C, 62G). GW3965 or BAPN treatment also reversed Pparγ and Lrp8 down-regulation (FIGS. 68A-68H) as well as reduced YAP nuclear localization (FIG. 62D, 62H) and YAP activation, as reflected by decreased Ctgf (FIGS. 68A-68H). Thus, considering the convergent data regarding pharmacologic manipulation of miR-130/301, APOE, and LOX, we can conclude that the YAP-TAZ-miR-130/301 circuit and its downstream network of targets act as master regulators of ECM remodeling in PH and represent a new set of targets for tailored molecular therapy in this disease.
To determine the effects of the LXR agonist GW3965 (Sigma-Aldrich) and consequent APOE induction on PH development, as previously described (Pencheva et al., 2014), mice were exposed to normobaric hypoxia and simultaneously assigned to control chow or chow supplemented with GW3965 (Research Diets, Inc.) at doses of 100 mg of drug per kilogram of mouse per day (based on average daily intake of […] of chow).
(§1) Picrosirius Red stain was achieved through the use of 5 μm paraffin sections stained with 0.1% Picrosirius Red (Direct Red80, Sigma-Aldrich) and counterstained with Weigert's hematoxylin to reveal fibrillar collagen. The sections were then serially imaged using with an analyzer and polarizer oriented parallel and orthogonal to each other. Microscope conditions (lamp brightness, condenser opening, objective, zoom, exposure time, and gain parameters) were constant throughout the imaging of all samples. A minimal threshold was set on appropriate control sections for each experiment in which only the light passing through the orthogonally-oriented polarizers representing fibrous structures (i.e., excluding residual light from the black background) was included. The threshold was maintained for all images across all conditions within each experiment. The area of the transferred regions that was covered by the thresholded light was calculated and at least 10 sections/vessel per condition were averaged together (Image J software).
This protocol was adapted from a previously published protocol (Hu et al.). Mouse lung was weighed, minced, and incubated in 0.5 M acetic acid at 4° C. After overnight digestion, the acetic acid-soluble and insoluble fractions were isolated by centrifugation. The soluble fraction was stored at −80° C., while the insoluble fraction was digested by overnight incubation in 6M hydrochloric acid at 85° C. Concentrations of soluble and insoluble (gelatinous) collagen fractions were determined using a Sircol Soluble Collagen Assay Kit (Biocolor) with a colorimetric reaction (measured at 550 nm) and a provided collagen reference standard curve.

[3] = test system: liver-X nuclear hormone receptor (LXR); assay: Oral LXR agonist GW3965 in bleomycin-exposed mice (lung fibrosis); format: in vivo, mouse; details: 100 mg/kg/day in chow
Description: C57BL/6 mice (7-8 weeks old) were exposed to 0.035 U of bleomycin via oropharyngeal route. In the control group, saline (PBS) was administered via the same route. Mice were euthanized 14 days or 21 days after bleomycin administration. To determine the effects of the LXR agonist GW3965 (Sigma-Aldrich) and consequent APOE induction on lung fibrosis, as previously described^12, mice were exposed to bleomycin (as described above) and simultaneously assigned to control chow or chow supplemented with GW3965 (Research Diets, Inc.) at doses of 100 mg of drug per kilogram of mouse per day (based on average daily intake of […] of chow). After two weeks, harvest of lung tissue was performed for RNA/protein extraction or paraffin embedding. Messenger RNAs were reverse transcribed using the Multiscript RT kit (Life Technologies) to generate cDNA. cDNA was amplified via fluorescently labeled Taqman primer sets using an Applied Biosystems 7900HT Fast Real Time PCR device. […] A primary antibody against YAP1 (#4912; 1/200) was obtained from Cell Signaling. Primary antibodies against, LRP8 (ab115196; 1/100), α-SMA (1/400) were purchased from Abcam. Primary antibodies against PPARγ (sc-7273; 1/50) was purchased from Santa Cruz. Primary antibody against anti-shortmer ([…]-[…]; 1/1000) was provided by Regulus Therapeutics, as previously described^2. […] Pictures were obtained using an Olympus Bx51 microscope. For liver tissue and pulmonary tissue, 10 random 20× fields per animal were analyzed. Intensity of staining was quantified using ImageJ software (NIH). […] Degree of liver fibrosis was assessed in paraffin-embedded liver sections stained for α-SMA by […] score^65. All measurements were performed blinded to condition. […] The sections were then serially imaged using with an analyzer and polarizer oriented parallel and orthogonal to each other. Microscope conditions (lamp brightness, condenser opening, objective, zoom, exposure time, and gain parameters) were constant throughout the imaging of all samples. A minimal threshold was set on appropriate control sections for each experiment in which only the light passing through the orthogonally-oriented polarizers representing fibrous structures (i.e., excluding residual light from the black background) was included. The threshold was maintained for all images across all conditions within each experiment. The area of the transferred regions that was covered by the thresholded light was calculated and at least 10 sections per condition were averaged together (Image J software).

PAAFs [4] = assay: PAAFs in soft or stiff matrix: fibrotic gene expression, immunoblot, collagen secretion; format: cell-based, human
Description: Cell Culture and Reagents: Primary human pulmonary arterial adventitial fibroblast cells (PAAFs) were purchased and propagated in FGM cell culture media (Lonza). Experiments were performed at passages 3 to 6. Primary human pulmonary fibroblast cells (PFs) were purchased and propagated in FGM cell culture media (Lonza). Primary human pulmonary arterial endothelial cells (PAECs) were purchased and propagated in EGM-2 cell culture media (Lonza). Experiments were performed at passages 3 to 6. Primary human pulmonary arterial smooth muscle cells (PASMCs) were purchased and propagated in SmGM-2 cell culture media (Lonza). Experiments were performed at passages 3 to 9. HEK293T cells (American Type Culture Collection) were used and cultivated in DMEM containing 10% fetal bovine serum (FBS). Cells were propagated in coated collagen plastic (50 ug/mL) at 37° C. in a humidified 5% CO2 atmosphere. Collagen-coated hydrogel were purchased.
3D cell culture: Protocol was adapted from previously published protocol (Aragona M et al, 2013 Cell). Cells were embedded in a mixture of Growth Factor Reduced Matrigel (BD Biosciences) and Collagen-I (BD Biosciencres). Collagen-I solution was neutralized on ice with 0.1M NaOH in PBS and adjusted with 0.1N HCl to bring the pH of the solution to 7.5. The Collagen-I solution was then mixed on ice with Matrigel to obtain a final concentration of 1.2 mg/ml (soft matrices) or 3 mg/ml (stiff matrices). Cells were trypsinized, counted, resuspended in growth medium; then, 1 volume of cells was mixed with 1 volume of the ECM mix. 6-well plated were precoated with 1 ml of cellfree 50% medium/50% ECM, and left in the incubator until gelled; then, cells were seeded in drop on top of the pregelled ECM. After gelling, wells were supplemented with normal growth medium, which was changed every 2 days during the experiments.
Oligonucleotides and Transfection: Pre-miRNA oligonucleotides (pre-miR-130a, negative control pre-miR-NC1 and premiR-NC2) and custom designed tiny LNA oligonucleotides (tiny-130: 5′-[…]-3′ (SEQ ID NO: 52), and tiny-NC 5′-[…]-3′ (SEQ ID NO: 54)) were purchased from Life Technologies/Ambion and Exiqon, respectively. siRNAs for PPARγ and OCT4/POU5F1 were purchased from Santa Cruz Biotechnology. siRNA for TIMP2 was purchased from Life Technologies. On Target Plus siRNAs for YAP1, TAZ (WWTR1), LRP8 and scrambled control were purchased from ThermoScientific/Dhermacon. PAAF, PF, PAEC and PASMC were plated in collagen-coated dish (50 ug/mL) and transfected 24 h later at 70-80% confluence using pre-miRNA (5 nM), tiny-LNA (20 nM) or siRNA (25 nM) and Lipofectamine 2000 reagent (Life Technologies), according to the manufacturers' instructions. 8 hours after transfection cells were trypsinized and re-plated in the different hydrogel/3D-matrix.
Primary human pulmonary arterial adventitial fibroblast cells (PAAFs) were purchased (ScienCell Research Laboratories) and grown in FGM cell culture media (Lonza). Experiments were performed at passages 3 to 6. Primary human pulmonary arterial endothelial cells (PAECs) were grown in EGM-2 cell culture media (Lonza), and experiments were performed at passages 3 to 6. Primary human pulmonary arterial smooth muscle cells (PASMCs) were cultured in SmGM-2 cell culture media (Lonza), and experiments were performed at passages 3 to 9. HEK293T cells (American Type Culture Collection) were cultivated in DMEM containing 10% fetal bovine serum (FBS). […]

PAAFs [5] = assay: ECM remodeling experiment (naïve PAAFs plated on remodeled ECM); format: cell-based, human
Description: After the different treatment cells were fixed with PBS/PFA 4% for 10 min and permeabilized with PBS/Triton 100×0.1% for 10 min. Then cells were incubated with anti-YAP1 (#4912; 1/100; Cell signaling) at 4° C. overnight. Secondary antibodies coupled with Alexa-594 (Life Technologies) were used at 1:500. Nuclei were counterstained with DAPI (Sigma).
Following treatment, PAAFs were plated atop soft matrices (see below) in normal growth medium supplemented with 0.5% FBS. After three days, 10 ug/mL of puromycin was added to the growth medium for 48 hours to detach the cells from the matrix. Matrices were washed 3 times (PBS). Naïve PAAFs were then plated on top of these matrices supplemented with normal growth medium 0.5% FBS or harvested for assessment of collagen crosslinking (Picrosirius Red stain). Sixteen hours later, cells were harvested for immunofluorescence experiments or RNA extraction.
as §1

Pparγ and Lrp8 down-regulation [3]: reversed
YAP activation, Ctgf expression [3]: decreased
YAP nuclear localization [3]: reduced
Compound: O=C(O)Cc1cccc(OCCCN(Cc2cccc(C(F)(F)F)c2Cl)CC(c2ccccc2)c2ccccc2)c1 [GW3965]
Pparγ and Lrp8 (and Timp2) expression ([1]; IHC / in situ stain): blunted
Ctgf, collagen isoforms and Lox transcripts ([1]; RT-PCR): reduced
collagen deposition and cross-linking ([1]; Short-130 20 mg/kg i.p. or GW3965 100 mg/kg dietary): blunted
lung fibrosis (α-SMA, collagen staining, Ashcroft score) ([1]; Short-130 or GW3965 100 mg/kg dietary): ameliorated
Yap nuclear localization / YAP ([1]; in situ stain): blunted
perivascular collagen crosslinking ([2]; Picrosirius Red): inhibited; also recorded: decreased
Ctgf, collagen isoforms, and Lox in lung ([2]; RT-qPCR): blunted
whole lung collagen content and crosslinked collagen ([2]; Sircol assay): nearly normalized
arteriolar muscularization ([2]; hypoxic mice): decreased; also recorded: prevented
right ventricular hypertrophy (Fulton index, RV/LV+S) ([2]; hypoxic mice): decreased; also recorded: prevented
RVSP ([2]; hypoxic mice, BAPN prevention and rescue, GW3965 100 mg/kg/day in chow, 100 mg/kg/day): decreased; also recorded: prevented
hypoxia mediated decreases of Lrp8 and Pparγ ([2]; in situ staining): reversed; also recorded: prevented
hypoxia-mediated increases of α-SMA and YAP ([2]; in situ staining): reduced; also recorded: blunted
collagen crosslinking ([3]; two weeks): inhibited
indices of lung fibrosis, Ashcroft score ([3]; two weeks): decreased

Compound: ApoE: Recombinant ApoE (PeproTech) used at 5 μM in growth media
collagen content of conditioned media (collagen secretion) (PAAFs [4]; PAAFs): disrupted; also recorded: reversed
miR-130a-induced up-regulation of collagen, CTGF, and LOX (PAAFs [4]; PAAFs exposed to exogenous ApoE): resistant
collagen crosslinking of remodeled ECM (PAAFs [5]; Picrosirius Red): reversed
collagen, LOX, CTGF, and POU5F1/OCT4 in naïve cells plated on remodeled ECM (PAAFs [5]; RT-qPCR): negligible alterations
miR-130/301 in naïve cells plated on remodeled ECM (PAAFs [5]; RT-qPCR): reversed

Reference: patent publication US20170226507A1, “COORDINATE CONTROL OF PATHOGENIC SIGNALING BY THE MIR-130/301 FAMILY IN PULMONARY HYPERTENSION AND FIBROPROLIFERATIVE DISEASES” (The Brigham and Women's Hospital, Inc., priority 2014, published 2017)
